In patent US8471005B2 (Cephalon, Inc., priority 2008, dated 2013):

Key:
[1] = target: T1, ALK (Homo sapiens, UniProt Q9UM73); assay: ALK Kinase Assay (ELISA/TRF, PLC-γ substrate); format: biochemical; settings: ALK Kinase Inhibition; read-out: ALK Potency
T1 construct: host or cells: baculovirus expression system
How it was run: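 IC50 values derive from percent inhibition plotted against log10 compound concentration and fitted to a variable-slope sigmoidal equation. The underlying reaction used 30 ng/ml ALK acting on immobilized PLC-γ (10 μg/mL in TBS) at 37° C for 15 minutes, read with Eu-N1 PT66 antibody.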

[2] = target: T2, JAK2 (Homo sapiens, UniProt O60674); assay: Recombinant Human JAK2 Kinase Assay (TRF); format: biochemical; settings: JAK2 Kinase Inhibition; read-out: JAK2 Potency
T2 construct: host or cells: baculovirus expression system
T2 sequence (O60674 whole entry): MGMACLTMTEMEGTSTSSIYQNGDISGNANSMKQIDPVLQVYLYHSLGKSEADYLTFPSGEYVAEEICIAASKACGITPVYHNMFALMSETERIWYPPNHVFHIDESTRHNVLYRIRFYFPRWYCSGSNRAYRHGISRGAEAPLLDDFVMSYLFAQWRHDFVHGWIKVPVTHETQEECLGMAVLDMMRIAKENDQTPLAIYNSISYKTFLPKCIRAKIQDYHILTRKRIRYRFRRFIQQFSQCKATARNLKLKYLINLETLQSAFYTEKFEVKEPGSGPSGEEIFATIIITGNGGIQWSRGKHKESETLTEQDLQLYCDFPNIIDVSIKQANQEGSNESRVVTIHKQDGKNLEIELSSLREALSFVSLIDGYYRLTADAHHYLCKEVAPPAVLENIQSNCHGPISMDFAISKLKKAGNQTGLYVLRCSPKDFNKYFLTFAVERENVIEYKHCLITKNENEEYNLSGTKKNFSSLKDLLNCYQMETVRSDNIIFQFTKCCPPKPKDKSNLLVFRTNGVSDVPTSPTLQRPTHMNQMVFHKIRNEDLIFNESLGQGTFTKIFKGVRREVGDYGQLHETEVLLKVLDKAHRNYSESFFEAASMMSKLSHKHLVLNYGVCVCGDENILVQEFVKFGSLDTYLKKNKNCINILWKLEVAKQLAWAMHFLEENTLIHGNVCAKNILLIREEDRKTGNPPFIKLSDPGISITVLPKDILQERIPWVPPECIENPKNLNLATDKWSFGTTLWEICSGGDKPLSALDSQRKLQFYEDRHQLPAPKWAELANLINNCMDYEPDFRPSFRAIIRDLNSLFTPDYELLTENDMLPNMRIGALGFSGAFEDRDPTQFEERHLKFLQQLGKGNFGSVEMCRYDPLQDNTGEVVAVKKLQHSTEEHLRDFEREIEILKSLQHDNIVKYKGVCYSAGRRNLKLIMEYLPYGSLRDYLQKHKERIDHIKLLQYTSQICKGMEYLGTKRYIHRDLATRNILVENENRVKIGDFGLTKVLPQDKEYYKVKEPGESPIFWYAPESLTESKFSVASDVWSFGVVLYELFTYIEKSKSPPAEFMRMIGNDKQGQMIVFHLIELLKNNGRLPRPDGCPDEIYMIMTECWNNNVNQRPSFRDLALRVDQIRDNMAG
How it was run: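 Europium-labelled PY100 antibody reported tyrosine phosphorylation of a Neutravidin-captured biotinyl 15-mer peptide by JAK2 (baculovirus-expressed, 15 ng/ml). Conditions: 20 mM HEPES pH 7.2, 0.2 μM ATP, 1 mM MnCl2, 0.1% BSA, DMSO 2.5% final, 20 min at room temperature.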

T1 sequence (Q9UM73 19-1620): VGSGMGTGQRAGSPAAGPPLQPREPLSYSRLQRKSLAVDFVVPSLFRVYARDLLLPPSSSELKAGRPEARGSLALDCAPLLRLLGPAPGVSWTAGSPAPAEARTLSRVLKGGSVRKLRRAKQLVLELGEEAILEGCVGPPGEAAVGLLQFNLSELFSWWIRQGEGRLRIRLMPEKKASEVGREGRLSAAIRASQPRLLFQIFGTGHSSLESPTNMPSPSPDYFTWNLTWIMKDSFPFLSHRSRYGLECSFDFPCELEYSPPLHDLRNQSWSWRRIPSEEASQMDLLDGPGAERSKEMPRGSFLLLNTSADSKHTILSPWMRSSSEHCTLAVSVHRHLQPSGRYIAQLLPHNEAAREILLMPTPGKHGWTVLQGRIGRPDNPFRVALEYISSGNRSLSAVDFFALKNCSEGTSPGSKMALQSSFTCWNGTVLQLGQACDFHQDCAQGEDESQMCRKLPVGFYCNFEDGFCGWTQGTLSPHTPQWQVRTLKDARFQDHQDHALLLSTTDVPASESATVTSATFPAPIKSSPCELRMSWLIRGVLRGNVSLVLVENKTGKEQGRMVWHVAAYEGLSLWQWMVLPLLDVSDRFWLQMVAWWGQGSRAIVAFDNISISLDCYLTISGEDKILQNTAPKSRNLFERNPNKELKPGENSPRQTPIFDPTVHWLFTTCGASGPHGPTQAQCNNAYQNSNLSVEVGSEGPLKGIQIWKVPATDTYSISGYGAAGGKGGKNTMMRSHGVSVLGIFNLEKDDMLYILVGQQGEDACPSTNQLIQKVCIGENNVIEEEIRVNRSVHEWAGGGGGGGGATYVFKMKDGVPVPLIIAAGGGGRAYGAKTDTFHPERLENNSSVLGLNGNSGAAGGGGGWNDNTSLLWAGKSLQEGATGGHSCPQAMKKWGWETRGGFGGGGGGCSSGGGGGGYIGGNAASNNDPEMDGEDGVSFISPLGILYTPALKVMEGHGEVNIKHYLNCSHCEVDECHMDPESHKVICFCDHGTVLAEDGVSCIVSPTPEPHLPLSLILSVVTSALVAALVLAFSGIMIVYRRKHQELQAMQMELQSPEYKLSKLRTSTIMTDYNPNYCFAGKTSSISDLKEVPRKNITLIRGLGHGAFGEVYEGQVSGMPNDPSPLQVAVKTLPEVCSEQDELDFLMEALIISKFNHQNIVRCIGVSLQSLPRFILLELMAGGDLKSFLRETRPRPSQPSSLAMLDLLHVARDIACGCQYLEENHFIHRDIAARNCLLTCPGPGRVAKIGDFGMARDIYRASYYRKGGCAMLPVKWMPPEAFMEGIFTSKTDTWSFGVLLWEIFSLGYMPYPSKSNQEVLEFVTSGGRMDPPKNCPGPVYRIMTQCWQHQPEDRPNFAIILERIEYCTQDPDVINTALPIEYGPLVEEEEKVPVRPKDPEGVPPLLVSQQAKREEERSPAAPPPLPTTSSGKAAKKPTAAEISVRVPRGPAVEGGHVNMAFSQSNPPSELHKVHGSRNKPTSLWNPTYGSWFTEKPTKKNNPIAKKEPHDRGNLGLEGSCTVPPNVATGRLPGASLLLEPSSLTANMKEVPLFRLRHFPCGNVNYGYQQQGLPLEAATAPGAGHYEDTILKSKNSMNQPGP

| SMILES | IC50 [1] | IC50 [2] |
| --- | --- | --- |
| CN(c1ccccc1-c1ccc2cnc(Nc3ccc4c(c3)NC(=O)C(C)(C)O4)nn12)S(C)(=O)=O [Example 1371, N-{2-[2-(2,2-Dimethyl-3-oxo-3,4-dihydro-2H-1,4-benzoxazin-6-ylamino)-pyrrolo[2,1-f][1,2,4]triazin-7-yl]-phenyl}-N-methyl-methanesulfonamide] | 100 to 1000 nM | < 100 nM |
| CC(=O)N1CCc2ccc(Nc3ncc4ccc(-c5cccc(S(=O)(=O)NC(C)(C)C)c5)n4n3)cc21 [Example 1372, 3-[2-(1-Acetyl-2,3-dihydro-1H-indol-6-ylamino)-pyrrolo[2,1-f][1,2,4]triazin-7-yl]-N-tert-butyl-benzenesulfonamide] | > 10000 nM | < 100 nM |
| CC(=O)N1CCOc2ccc(Nc3ncc4ccc(-c5cccc(S(=O)(=O)NC(C)(C)C)c5)n4n3)cc21 [Example 1373, 3-[2-(4-Acetyl-3,4-dihydro-2H-benzo[1,4]oxazin-6-ylamino)-pyrrolo[2,1-f][1,2,4]triazin-7-yl]-N-tert-butyl-benzenesulfonamide] | < 100 nM | < 100 nM |
| CC(=O)N1CCOc2ccc(Nc3ncc4ccc(-c5ccccc5N(C)S(C)(=O)=O)n4n3)cc21 [Example 1374, N-{2-[2-(4-Acetyl-3,4-dihydro-2H-1,4-benzoxazin-6-ylamino)-pyrrolo[2,1-f][1,2,4]triazin-7-yl]-phenyl}-N-methyl-methanesulfonamide] | 100 to 1000 nM | < 100 nM |
| CC(=O)Nc1cccc(Nc2ncc3ccc(-c4ccccc4N(C)S(C)(=O)=O)n3n2)c1 [Example 1375, N-(3-{7-[2-(Methanesulfonyl-methyl-amino)-phenyl]-pyrrolo[2,1-f][1,2,4]triazin-2-ylamino}-phenyl)-acetamide] | 100 to 1000 nM | < 100 nM |
| CC(C)(C)NS(=O)(=O)c1cccc(-c2ccc3cnc(Nc4ccc5c(c4)NC(=O)C(C)(C)O5)nn23)c1 [Example 1376, N-tert-Butyl-3-[2-(2,2-dimethyl-3-oxo-3,4-dihydro-2H-1,4-benzoxazin-6-ylamino)-pyrrolo[2,1-f][1,2,4]triazin-7-yl]-benzenesulfonamide] | 1000 to 10000 nM | < 100 nM |
| COc1ccc(Nc2ncc3ccc(-c4cccc(S(=O)(=O)NC(C)(C)C)c4)n3n2)cc1N1CCCC1=O [Example 1377, N-tert-Butyl-3-{2-[4-methoxy-3-(2-oxo-pyrrolidin-1-yl)-phenylamino]-pyrrolo[2,1-f][1,2,4]triazin-7-yl}-benzenesulfonamide] | 100 to 1000 nM | < 100 nM |
| CC(=O)Nc1cccc(Nc2ncc3ccc(-c4cnn(C)c4)n3n2)c1 [Example 1378, N-{3-[7-(1-Methyl-1H-pyrazol-4-yl)-pyrrolo[2,1-f][1,2,4]triazin-2-ylamino]-phenyl}-acetamide] | 1000 to 10000 nM | < 100 nM |
| CCN1C(=O)CCC(C)(C)c2ccc(Nc3ncc4ccc(-c5cnn(C)c5)n4n3)cc21 [Example 1379, 1-Ethyl-5,5-dimethyl-8-[7-(1-methyl-1H-pyrazol-4-yl)-pyrrolo[2,1-f][1,2,4]triazin-2-ylamino]-1,3,4,5-tetrahydro-benzo[b]azepin-2-one] | 100 to 1000 nM | < 100 nM |
| CC(=O)Nc1cc(Nc2ncc3ccc(-c4cnn(C)c4)n3n2)ccc1C(C)(C)C [Example 1380, N-{2-tert-Butyl-5-[7-(1-methyl-1H-pyrazol-4-yl)-pyrrolo[2,1-f][1,2,4]triazin-2-ylamino]-phenyl}-acetamide] | 1000 to 10000 nM | < 100 nM |
| CC(=O)N1CCCC(C)(C)c2ccc(Nc3ncc4ccc(-c5cnn(C)c5)n4n3)cc21 [Example 1381, 1-{5,5-Dimethyl-8-[7-(1-methyl-1H-pyrazol-4-yl)-pyrrolo[2,1-f][1,2,4]triazin-2-ylamino]-2,3,4,5-tetrahydro-benzo[b]azepin-1-yl}-ethanone] | 1000 to 10000 nM | < 100 nM |
| CC(=O)Nc1cccc(Nc2ncc3ccc(-c4ccccc4NS(C)(=O)=O)n3n2)c1 [Example 1382, N-{3-[7-(2-Methanesulfonylamino-phenyl)-pyrrolo[2,1-f][1,2,4]triazin-2-ylamino]-phenyl}-acetamide] | 1000 to 10000 nM | < 100 nM |
| CC(C)(C)NS(=O)(=O)c1cccc(-c2ccc3cnc(Nc4cccc(N5CCCC5=O)c4)nn23)c1 [Example 1383, N-tert-Butyl-3-{2-[3-(2-oxo-pyrrolidin-1-yl)-phenylamino]-pyrrolo[2,1-f][1,2,4]triazin-7-yl}-benzenesulfonamide] | 1000 to 10000 nM | < 100 nM |
| CNC(=O)c1cccc(Nc2ncc3ccc(-c4cccc(S(=O)(=O)NC(C)(C)C)c4)n3n2)c1 [Example 1384, 3-[7-(3-tert-Butylsulfamoyl-phenyl)-pyrrolo[2,1-f][1,2,4]triazin-2-ylamino]-N-methyl-benzamide] | 1000 to 10000 nM | < 100 nM |
| CC(C)C(=O)Nc1cccc(Nc2ncc3ccc(-c4cccc(S(=O)(=O)NC(C)(C)C)c4)n3n2)c1 [Example 1385, N-{3-[7-(3-tert-Butylsulfamoyl-phenyl)-pyrrolo[2,1-f][1,2,4]triazin-2-ylamino]-phenyl}-isobutyramide] | 1000 to 10000 nM | < 100 nM |
| CC(C)(C)NS(=O)(=O)c1cccc(-c2ccc3cnc(Nc4cccc(-n5cccn5)c4)nn23)c1 [Example 1386, N-tert-Butyl-3-[2-(3-pyrazol-1-yl-phenylamino)-pyrrolo[2,1-f][1,2,4]triazin-7-yl]-benzenesulfonamide] | 1000 to 10000 nM | < 100 nM |
| CC(=O)Nc1cc(Nc2ncc3ccc(-c4cccc(S(=O)(=O)NC(C)(C)C)c4)n3n2)ccc1C(C)(C)C [Example 1387, N-{2-tert-Butyl-5-[7-(3-tert-butylsulfamoyl-phenyl)-pyrrolo[2,1-f][1,2,4]triazin-2-ylamino]-phenyl}-acetamide] | 100 to 1000 nM | < 100 nM |
| CC(=O)N1CC(C)(C)c2ccc(Nc3ncc4ccc(-c5cccc(S(=O)(=O)NC(C)(C)C)c5)n4n3)cc21 [Example 1388, 3-[2-(1-Acetyl-3,3-dimethyl-2,3-dihydro-1H-indol-6-ylamino)-pyrrolo[2,1-f][1,2,4]triazin-7-yl]-N-tert-butyl-benzenesulfonamide] | 100 to 1000 nM | < 100 nM |
| Cn1cc(-c2ccc3cnc(Nc4cccc(NS(C)(=O)=O)c4)nn23)cn1 [Example 1389, N-{3-[7-(1-Methyl-1H-pyrazol-4-yl)-pyrrolo[2,1-f][1,2,4]triazin-2-ylamino]-phenyl}-methanesulfonamide] | 1000 to 10000 nM | < 100 nM |
| CC(C)(C)NS(=O)(=O)c1cccc(-c2ccc3cnc(Nc4cccc(C(N)=O)c4)nn23)c1 [Example 1390, 3-[7-(3-tert-Butylsulfamoyl-phenyl)-pyrrolo[2,1-f][1,2,4]triazin-2-ylamino]-benzamide] | 1000 to 10000 nM | < 100 nM |
| CC(C)(C)NS(=O)(=O)c1cccc(-c2ccc3cnc(Nc4cccc(-n5cnnc5)c4)nn23)c1 [Example 1391, N-tert-Butyl-3-[2-(3-[1,2,4]triazol-4-yl-phenylamino)-pyrrolo[2,1-f][1,2,4]triazin-7-yl]-benzenesulfonamide] | 100 to 1000 nM | < 100 nM |
| CN1CCN(c2cccc(Nc3ncc4ccc(-c5cccc(N6CCOCC6)c5)n4n3)c2)CC1 [Example 1392, [3-(4-Methyl-piperazin-1-yl)-phenyl]-[7-(3-morpholin-4-yl-phenyl)-pyrrolo[2,1-f][1,2,4]triazin-2-yl]-amine] | 100 to 1000 nM | < 100 nM |
| CC(C)(C)NS(=O)(=O)c1cccc(-c2ccc3cnc(Nc4cccc(N5CCOCC5)c4)nn23)c1 [Example 1393, N-tert-Butyl-3-[2-(3-morpholin-4-yl-phenylamino)-pyrrolo[2,1-f][1,2,4]triazin-7-yl]-benzenesulfonamide] | 100 to 1000 nM | < 100 nM |
| CC(C)(C)NS(=O)(=O)c1cccc(-c2ccc3cnc(Nc4ccc(F)c(N5CCOCC5)c4)nn23)c1 [Example 1394, N-tert-Butyl-3-[2-(4-fluoro-3-morpholin-4-yl-phenylamino)-pyrrolo[2,1-f][1,2,4]triazin-7-yl]-benzenesulfonamide] | 100 to 1000 nM | < 100 nM |
| CC(C)(C)NS(=O)(=O)c1cccc(-c2ccc3cnc(Nc4ccc(N5CCOCC5)c(F)c4)nn23)c1 [Example 1395, N-tert-Butyl-3-[2-(3-fluoro-4-morpholin-4-yl-phenylamino)-pyrrolo[2,1-f][1,2,4]triazin-7-yl]-benzenesulfonamide] | 100 to 1000 nM | < 100 nM |
| COc1cccc(Nc2ncc3ccc(-c4cccc(S(=O)(=O)NC(C)(C)C)c4)n3n2)c1 [Example 1396, N-tert-Butyl-3-[2-(3-methoxy-phenylamino)-pyrrolo[2,1-f][1,2,4]triazin-7-yl]-benzenesulfonamide] | 1000 to 10000 nM | < 100 nM |
| COCC(C)OC(=O)COc1ccccc1-c1ccc2cnc(Nc3ccc(N4CCN(C)CC4)c(F)c3)nn12 (stereo not shown) [Example 1397, (2-{2-[3-Fluoro-4-(4-methyl-piperazin-1-yl)-phenylamino]-pyrrolo[2,1-f][1,2,4]triazin-7-yl}-phenoxy)-acetic acid 2-methoxy-1-methyl-ethyl ester] | 1000 to 10000 nM | < 100 nM |
| CC(=O)Nc1cc(Nc2ncc3ccc(-c4cccc(S(=O)(=O)NC(C)(C)C)c4)n3n2)ccc1C [Example 1398, N-{5-[7-(3-tert-Butylsulfamoyl-phenyl)-pyrrolo[2,1-f][1,2,4]triazin-2-ylamino]-2-methyl-phenyl}-acetamide] | 100 to 1000 nM | < 100 nM |
| CC(C)(C)NS(=O)(=O)c1cccc(-c2ccc3cnc(Nc4ccc(C(N)=O)cc4)nn23)c1 [Example 1399, 4-[7-(3-tert-Butylsulfamoyl-phenyl)-pyrrolo[2,1-f][1,2,4]triazin-2-ylamino]-benzamide] | 1000 to 10000 nM | < 100 nM |
